The text below walks through data of patent US8435978B2, “Substituted sulfonamide compounds” (Gruenenthal GmbH, priority 2006, dated 2013).

One test has as its target T1, human B1R receptor (Homo sapiens, UniProt P46663).
T1 construct: host or cells: CHO K1 cells (Chinese hamster ovary), stably transfected
T1 sequence (P46663 1-353): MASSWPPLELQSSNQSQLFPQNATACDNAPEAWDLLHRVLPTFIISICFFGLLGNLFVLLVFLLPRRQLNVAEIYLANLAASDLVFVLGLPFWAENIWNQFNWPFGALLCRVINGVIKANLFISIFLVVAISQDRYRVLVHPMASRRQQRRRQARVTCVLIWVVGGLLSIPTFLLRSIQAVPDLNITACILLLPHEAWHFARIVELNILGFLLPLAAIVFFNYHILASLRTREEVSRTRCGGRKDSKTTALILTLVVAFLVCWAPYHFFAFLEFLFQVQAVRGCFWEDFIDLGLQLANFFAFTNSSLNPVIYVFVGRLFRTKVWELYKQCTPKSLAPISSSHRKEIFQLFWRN
As to the kind of experiment: Functional study on the bradykinin receptor 1 (B1R), FLIPR Ca2+ assay, hB1R cells. Format: cell-based. To be noted: agonist Lys-Des-Arg9-bradykinin 0.5 nM, % inhibition compared with the maximum achievable inhibition; for inhibition at 10 µM: CHO-K1, test substance 10 μM, read-out: B1R Antagonism, human [10 μM] % Inhibition. The procedure, abridged: (§1)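 FLIPR Ca2+ read-out (Fluo-4, peak fluorescence) in stably transfected CHO K1 cells. Compounds at 10 μM, then 10 min later agonist challenge: human B1R with Lys-Des-Arg9-bradykinin 0.5 nM, rat B1R with Des-Arg9-bradykinin 100 nM; reported as % activation or % of maximal inhibition.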

The target of a further test is T2, B1R receptor of the rat (Rattus norvegicus, UniProt P97583).
T2 construct: host or cells: CHO K1 cells (Chinese hamster ovary), stably transfected
T2 sequence (P97583 1-337): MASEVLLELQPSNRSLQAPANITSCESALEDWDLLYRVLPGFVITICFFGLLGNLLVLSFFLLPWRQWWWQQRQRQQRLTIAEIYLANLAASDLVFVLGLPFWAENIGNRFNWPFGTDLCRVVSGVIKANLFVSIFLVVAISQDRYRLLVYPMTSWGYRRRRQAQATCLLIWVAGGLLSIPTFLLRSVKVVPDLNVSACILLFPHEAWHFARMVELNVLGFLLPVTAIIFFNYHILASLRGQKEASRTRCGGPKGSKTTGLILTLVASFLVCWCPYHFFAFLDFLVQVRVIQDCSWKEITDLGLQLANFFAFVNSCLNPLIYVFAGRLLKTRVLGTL
Put plainly: Functional study on the bradykinin receptor 1 (B1R), FLIPR Ca2+ assay, rB1R cells. Format: cell-based. To be noted: agonist Des-Arg9-bradykinin 100 nM, % inhibition compared with the maximum achievable inhibition; for inhibition at 10 µM: CHO-K1, test substance 10 μM, read-out: B1R Antagonism, rat [10 μM] % Inhibition. The method, boiled down: as §1

Structures are written as SMILES.

On to `COc1cc(C)c(S(=O)(=O)N2CCCCC2COCC(=O)N2CCN(c3ncc(C(F)(F)F)cc3Cl)CC2)c(C)c1` (centres unmarked) [Example 376, 1-(4-(3-chloro-5-(trifluoromethyl)pyridin-2-yl)piperazin-1-yl)-2-((1-(4-methoxy-2,6-dimethylphenylsulfonyl)piperidin-2-yl)methoxy)ethanone], for which the inhibition at 10 µM was 67.1% on human B1R receptor and 99% on B1R receptor of the rat.

Take `COc1cc(C)c(S(=O)(=O)N2CCCCC2COCC(=O)NCc2ccccc2N2CCOCC2)c(C)c1` (centres unmarked) [Example 435, 2-((1-(4-methoxy-2,6-dimethylphenylsulfonyl)piperidin-2-yl)methoxy)-N-(2-morpholinobenzyl)acetamide]: the inhibition at 10 µM is 6.23% on human B1R receptor and 99.6% at B1R receptor of the rat.

With `O=C(COCC1CCCN1S(=O)(=O)c1ccc(Cl)c(Cl)c1)N1CCN(CCN2CCCCC2)CC1` (centres unmarked) [Example 72, 2-((1-(3,4-dichlorophenylsulfonyl)pyrrolidin-2-yl)methoxy)-1-(4-(2-(piperidin-1-yl)-ethyl)piperazin-1-yl)ethanone], the inhibition at 10 µM on human B1R receptor is 52.6%; at B1R receptor of the rat, 13.2%.

Turning to `CCN1CCN(CCCNC(=O)COCC2CCCCN2S(=O)(=O)c2c(C)cc(OC)cc2C)CC1` (centres unmarked) [Example 412, N-(3-(4-ethylpiperazin-1-yl)propyl)-2-((1-(4-methoxy-2,6-dimethylphenylsulfonyl)piperidin-2-yl)methoxy)acetamide], the inhibition at 10 µM at human B1R receptor was 101%; on B1R receptor of the rat, 103%.

As to `COc1cc(C)c(S(=O)(=O)N2CCCCC2COCC(=O)N2CCC[C@H]2CN2CCCC2)c(C)c1` (stereo partly drawn) [Example 374, 2-((1-(4-methoxy-2,6-dimethylphenylsulfonyl)piperidin-2-yl)methoxy)-1-((S)-2-(pyrrolidin-1-ylmethyl)pyrrolidin-1-yl)ethanone], the inhibition at 10 µM on human B1R receptor came out at 80.8%; at B1R receptor of the rat it was 102%.

As to `COc1cc(C)c(S(=O)(=O)N2CCCCC2COCC(=O)NCc2ccc(CN3CCCCC3)cc2)c(C)c1` (centres unmarked) [Example 2, 2-[1-(4-methoxy-2,6-dimethyl-phenylsulfonyl)-piperidin-2-ylmethoxy]-N-(4-piperidin-1-ylmethyl-benzyl)-acetamide], the figures for the inhibition at 10 µM on human B1R receptor and at B1R receptor of the rat were 104% and 87.4%, respectively.

For `CN1CCC(N2CCN(C(=O)COCC3CCCCN3S(=O)(=O)c3csc4ccccc34)CC2)CC1` (centres unmarked) [Example 137, 2-((1-(benzo[b]thiophen-3-ylsulfonyl)piperidin-2-yl)methoxy)-1-(4-(1-methylpiperidin-4-yl)piperazin-1-yl)ethanone], the figures for the inhibition at 10 µM at human B1R receptor and at B1R receptor of the rat were 102% and 98.8%, respectively.

Regarding `Cc1cc(C)c(S(=O)(=O)N2CCCCC2COCC(=O)N2CCCCC2Cc2ncccc2C)c(C)c1` (centres unmarked) [Example 229, 2-((1-(mesitylsulfonyl)piperidin-2-yl)methoxy)-1-(2-((3-methylpyridin-2-yl)methyl)piperidin-1-yl)ethanone], the inhibition at 10 µM on human B1R receptor and on B1R receptor of the rat was 101% throughout.

Regarding `COc1cc(C)c(S(=O)(=O)N2CCCC2COCC(=O)N2CCN(c3ccncc3)CC2)c(C)c1` (centres unmarked) [Example 274, 2-((1-(4-methoxy-2,6-dimethylphenylsulfonyl)pyrrolidin-2-yl)methoxy)-1-(4-(pyridin-4-yl)piperazin-1-yl)ethanone], the inhibition at 10 µM on human B1R receptor is 104%; at B1R receptor of the rat it was 98.1%.

Regarding `COc1cc(C)c(S(=O)(=O)N2CCCCC2COCC(=O)Nc2ccc(CN3CCC(C)CC3)cc2)c(C)c1` (centres unmarked) [Example 421, 2-((1-(4-methoxy-2,6-dimethylphenylsulfonyl)piperidin-2-yl)methoxy)-N-(4-((4-methylpiperidin-1-yl)methyl)phenyl)acetamide], the results for the inhibition at 10 µM at human B1R receptor and on B1R receptor of the rat were 97.3% and 93.4%, respectively.

Consider `CCOCCN1CCN(C(=O)COCC2Cc3ccccc3CN2S(=O)(=O)c2c(C)cc(C)cc2C)CC1` (centres unmarked) [Example 245, 1-(4-(2-ethoxyethyl)piperazin-1-yl)-2-((2-(mesitylsulfonyl)-1,2,3,4-tetrahydroisoquinolin-3-yl)methoxy)ethanone], for which the inhibition at 10 µM on human B1R receptor was 69.9%; at B1R receptor of the rat, 80.5%.

Take `O=C(COCC1Cc2ccccc2CN1S(=O)(=O)c1ccc(Cl)c(Cl)c1)N1CCCC1CN1CCCCC1` (centres unmarked) [Example 82, 2-[2-(3,4-dichloro-phenylsulfonyl)-1,2,3,4-tetrahydro-isoquinolin-3-ylmethoxy]-1-(2-piperidin-1-ylmethyl-pyrrolidin-1-yl)-ethanone]: the inhibition at 10 µM is 44.9% at human B1R receptor and 4.42% on B1R receptor of the rat.

Turning to `Cc1cc(C)c(S(=O)(=O)N2CCCCC2COCC(=O)Nc2cccc(CN3CCCCC3)c2)c(C)c1` (centres unmarked) [Example 76, N-(3-piperidin-1-ylmethyl-phenyl)-2-[1-(2,4,6-trimethyl-phenylsulfonyl)-piperidin-2-ylmethoxy]-acetamide], the inhibition at 10 µM at human B1R receptor came to 48.9%; at B1R receptor of the rat, 40.3%.

Turning to `COc1ccc(S(=O)(=O)N2CCCCC2COCC(=O)N2CCN(c3nc(CCc4ccccc4)cs3)CC2)cc1` (centres unmarked) [Example 220, 2-((1-(4-methoxyphenylsulfonyl)piperidin-2-yl)methoxy)-1-(4-(4-phenethylthiazol-2-yl)piperazin-1-yl)ethanone], the inhibition at 10 µM on human B1R receptor worked out at 15.3%; at B1R receptor of the rat, 86.3%.

With `O=C(COCC1CCCCN1S(=O)(=O)c1c(Cl)cc(Cl)cc1Cl)NCc1ccc(CN2CCOCC2)cc1` (centres unmarked) [Example 30, N-(4-morpholin-4-ylmethyl-benzyl)-2-[1-(2,4,6-trichloro-phenylsulfonyl)-piperidin-2-ylmethoxy]-acetamide], the inhibition at 10 µM on human B1R receptor came out at 84%; on B1R receptor of the rat, 108%.

As to `CN1CCC(N2CCN(C(=O)COCC3CCCCN3S(=O)(=O)c3ccc4ccccc4c3)CC2)CC1` (centres unmarked) [Example 111, 1-(4-(1-methylpiperidin-4-yl)piperazin-1-yl)-2-((1-(naphthalen-2-ylsulfonyl)piperidin-2-yl)methoxy)ethanone], the inhibition at 10 µM on human B1R receptor is 91.9%; at B1R receptor of the rat, 101%.

Take `CN(C)CCCN1CCN(C(=O)COCC2CCCCN2S(=O)(=O)c2c(Cl)cccc2Cl)CC1` (centres unmarked) [Example 564, 2-((1-(2,6-dichlorophenylsulfonyl)piperidin-2-yl)methoxy)-1-(4-(3-(dimethylamino)propyl)piperazin-1-yl)ethanone]: the inhibition at 10 µM at human B1R receptor came to 105%; on B1R receptor of the rat, 102%.

Take `COc1cc(C)c(S(=O)(=O)N2CCCC2COCC(=O)N2CCN(c3cccc(C(F)(F)F)c3)CC2)c(C)c1` (centres unmarked) [Example 465, 2-((1-(4-methoxy-2,6-dimethylphenylsulfonyl)pyrrolidin-2-yl)methoxy)-1-(4-(3-(trifluoromethyl)phenyl)piperazin-1-yl)ethanone]: the inhibition at 10 µM worked out at 102% on human B1R receptor and 98.8% on B1R receptor of the rat.

As to `Cc1cc(C)c(S(=O)(=O)N2Cc3ccccc3CC2COCC(=O)NCC2CCCN(Cc3ccccc3)C2)c(C)c1` (centres unmarked) [Example 41, N-(1-benzyl-piperidin-3-ylmethyl)-2-[2-(2,4,6-trimethyl-phenylsulfonyl)-1,2,3,4-tetrahydro-isoquinolin-3-ylmethoxy]-acetamide], the inhibition at 10 µM on human B1R receptor amounted to 72.6%; at B1R receptor of the rat it was 16.4%.

On to `COc1cc(C)c(S(=O)(=O)N2CCCCC2COCC(=O)NC(CN2CCN(C)CC2)c2ccccc2)c(C)c1` (centres unmarked) [Example 263, 2-((1-(4-methoxy-2,6-dimethylphenylsulfonyl)piperidin-2-yl)methoxy)-N-(2-(4-methylpiperazin-1-yl)-1-phenylethyl)acetamide], for which the inhibition at 10 µM on human B1R receptor is 100%; on B1R receptor of the rat, 97.8%.

Take `COc1cc(C)c(S(=O)(=O)N2CCCCC2COCC(=O)NCCN(C)C)c(C)c1` (centres unmarked) [Example 259, N-(2-(dimethylamino)ethyl)-2-((1-(4-methoxy-2,6-dimethylphenylsulfonyl)piperidin-2-yl)methoxy)acetamide]: the inhibition at 10 µM on human B1R receptor was determined as 66.1%; on B1R receptor of the rat, 99.3%.

With `CN(C)c1ccc(C2CCCCCN2C(=O)COCC2CCCCN2S(=O)(=O)c2cccc3ccccc23)cc1` (centres unmarked) [Example 63, 1-[2-(4-dimethylamino-phenyl)-azepan-1-yl]-2-[1-(naphthyl-1-sulfonyl)-piperidin-2-ylmethoxy]-ethanone], at human B1R receptor (test substance 10 μM, hB1R CHO K1 cells), the “B1R Antagonism, human [10 μM] % Inhibition” value was 58.57%. Also, on B1R receptor of the rat (test substance 10 μM, rB1R CHO K1 cells), the “B1R Antagonism, rat [10 μM] % Inhibition” value came to 26.41%.
